Reference: ChEMBL document CHEMBL3045499, “Chem-bioinformatics and in vitro approaches for candidate optimization: a case study of NSC745689 as a promising antitumor agent” (Med Chem Res, 2013)
pIC50: −log10 of the molar value. Activity calls are given as the source filed them. The calls are words filed in the database; no cut-off is given here.

What was measured:
HOP-62 = test: Growth inhibition of Homo sapiens (human) HOP62 cells after 48 hr by SRB assay; format: functional; details: HOP-62, 48 h
HOP-92 [1] = test: Growth inhibition of Homo sapiens (human) HOP92 cells after 48 hr by SRB assay; format: functional; details: HOP-92, 48 h
SR = test: Growth inhibition of Homo sapiens (human) SR cells after 48 hr by SRB assay; format: functional
EKVX = test: Growth inhibition of Homo sapiens (human) EKVX cells after 48 hr by SRB assay; format: functional
MOLT-4 = test: Growth inhibition of Homo sapiens (human) MOLT4 cells after 48 hr by SRB assay; format: functional; details: MOLT-4, 48 h
HL-60(TB) = test: Growth inhibition of Homo sapiens (human) HL-60(TB) cells after 48 hr by SRB assay; format: functional; details: HL-60, 48 h
K562 = test: Growth inhibition of Homo sapiens (human) K562 cells after 48 hr by SRB assay; format: functional; details: K562, 48 h
T47D = test: Growth inhibition of Homo sapiens (human) T47D cells after 48 hr by SRB assay; format: functional
MDA-MB-468 = test: Growth inhibition of Homo sapiens (human) MDA-MB-468 cells after 48 hr by SRB assay; format: functional; details: MDA-MB-468, 48 h
BT-549 = test: Growth inhibition of Homo sapiens (human) BT549 cells after 48 hr by SRB assay; format: functional; details: BT-549, 48 h
Hs-578T = test: Growth inhibition of Homo sapiens (human) Hs 578T cells after 48 hr by SRB assay; format: functional
MDA-MB-435 = test: Growth inhibition of Homo sapiens (human) MDA-MB-435 cells after 48 hr by SRB assay; format: functional; details: MDA-MB-435, 48 h
NCI/ADR-RES = test: Growth inhibition of Homo sapiens (human) NCI/ADR-RES cells after 48 hr by SRB assay; format: functional
MDA-MB-231 = test: Growth inhibition of Homo sapiens (human) MDA-MB-231/ATCC cells after 48 hr by SRB assay; format: functional; details: MDA-MB-231, 48 h
SNB-75 [2] = test: Growth inhibition of Homo sapiens (human) SNB75 cells after 48 hr by SRB assay; format: functional; details: SNB-75, 48 h
U-251 = test: Growth inhibition of Homo sapiens (human) U251 cells after 48 hr by SRB assay; format: functional; details: U-251, 48 h
MCF7 = test: Growth inhibition of Homo sapiens (human) MCF7 cells after 48 hr by SRB assay; format: functional; details: MCF7, 48 h
SF-539 = test: Growth inhibition of Homo sapiens (human) SF539 cells after 48 hr by SRB assay; format: functional; details: SF-539, 48 h
SNB-19 = test: Growth inhibition of Homo sapiens (human) SNB19 cells after 48 hr by SRB assay; format: functional; details: SNB-19, 48 h
SF-268 = test: Growth inhibition of Homo sapiens (human) SF268 cells after 48 hr by SRB assay; format: functional; details: SF-268, 48 h
SF-295 = test: Growth inhibition of Homo sapiens (human) SF295 cells after 48 hr by SRB assay; format: functional; details: SF-295, 48 h
NCI-H460 = test: Growth inhibition of Homo sapiens (human) NCI-H460 cells after 48 hr by SRB assay; format: functional; details: NCI-H460, 48 h
NCI-H226 = test: Growth inhibition of Homo sapiens (human) NCI-H226 cells after 48 hr by SRB assay; format: functional; details: NCI-H226, 48 h
NCI-H23 = test: Growth inhibition of Homo sapiens (human) NCI-H23 cells after 48 hr by SRB assay; format: functional; details: NCI-H23, 48 h
NCI-H322M = test: Growth inhibition of Homo sapiens (human) NCI-H322M cells after 48 hr by SRB assay; format: functional
A549 = test: Growth inhibition of Homo sapiens (human) A549/ATCC cells after 48 hr by SRB assay; format: functional; details: A549, 48 h
RPMI-8226 = test: Growth inhibition of Homo sapiens (human) RPMI8226 cells after 48 hr by SRB assay; format: functional; details: RPMI-8226, 48 h
CCRF-CEM = test: Growth inhibition of Homo sapiens (human) CCRF-CEM cells after 48 hr by SRB assay; format: functional
SNB-75 [3] = test: Growth inhibition of Homo sapiens (human) SNB75 cells at 1 uM after 48 hr by SRB assay; format: functional, cell-based
HOP-92 [4] = test: Growth inhibition of Homo sapiens (human) HOP92 cells at 1 uM after 48 hr by SRB assay; format: functional, cell-based
Cytochrome P450 1A1 = Cytochrome P450 1A1 (Homo sapiens, UniProt P04798); test: Inhibition of recombinant CYP1A1 (unknown origin) using 7-ethoxyresorufin as substrate by EROD assay
NCI-H522 = test: Growth inhibition of Homo sapiens (human) NCI-H522 cells after 48 hr by SRB assay; format: functional; details: NCI-H522, 48 h

Sequence of Cytochrome P450 1A1 (P04798 whole entry): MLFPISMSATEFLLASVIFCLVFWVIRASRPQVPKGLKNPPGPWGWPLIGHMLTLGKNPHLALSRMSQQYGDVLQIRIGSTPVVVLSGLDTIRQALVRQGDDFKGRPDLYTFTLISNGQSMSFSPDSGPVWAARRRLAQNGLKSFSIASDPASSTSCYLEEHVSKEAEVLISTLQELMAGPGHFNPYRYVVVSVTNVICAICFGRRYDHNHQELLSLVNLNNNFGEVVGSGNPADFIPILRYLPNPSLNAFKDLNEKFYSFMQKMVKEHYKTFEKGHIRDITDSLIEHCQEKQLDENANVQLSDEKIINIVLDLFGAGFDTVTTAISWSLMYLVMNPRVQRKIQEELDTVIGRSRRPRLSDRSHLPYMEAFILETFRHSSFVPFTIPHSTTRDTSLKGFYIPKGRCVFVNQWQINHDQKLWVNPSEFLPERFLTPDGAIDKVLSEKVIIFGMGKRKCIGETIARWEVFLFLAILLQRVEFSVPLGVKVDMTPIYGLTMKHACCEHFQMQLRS

Row | SMILES | GI50 (HOP-62) | GI50 (HOP-92 [1]; read-out: pGI50 (converted)) | GI50 (SR) | GI50 (EKVX) | GI50 (MOLT-4) | GI50 (HL-60(TB)) | GI50 (K562) | GI50 (T47D) | GI50 (BT-549) | GI50 (Hs-578T; read-out: pGI50 (converted)) | GI50 (MDA-MB-435) | GI50 (NCI/ADR-RES) | GI50 (MDA-MB-231) | GI50 (SNB-75 [2]; read-out: pGI50 (converted)) | GI50 (U-251) | GI50 (MCF7) | GI50 (SF-539) | GI50 (SNB-19) | GI50 (SF-268) | GI50 (SF-295) | also measured
1 | N#Cc1c(Nc2ccc(Cl)cc2)nc2sc3cc(Cl)ccc3n2c1=N | 0.00457 µM | > 100 µM | 2.29 µM | 10.2 µM | 2.51 µM | > 100 µM | > 100 µM | > 100 µM | 24.5 µM | 1.45 µM | 6.17 µM | 4.68 µM | 7.24 µM | 5.01 µM | 6.61 µM | 1.82 µM | 8.71 µM | > 100 µM | 4.07 µM | 3.02 µM | GI50 (HOP-92 [1]; read-out: GI50): 1.82 µM; GI50 (MDA-MB-468): 3.63 µM; GI50 (NCI-H460): 21.9 µM; GI50 (NCI-H226): 2.4 µM; GI50 (NCI-H23): 0.646 µM; GI50 (NCI-H322M): 28.2 µM
2 | CSc1nc2sc3cc(Cl)ccc3n2c(=N)c1C#N | 38 µM | 0.01 µM | 9.77 µM | 9.77 µM | 2.51 µM | 1.35 µM | 27.5 µM | 28.2 µM | 23.4 µM | 4.9 µM | > 100 µM | 17.8 µM | 74.1 µM | 12.3 µM | 30.2 µM | 3.89 µM | 26.9 µM | 40.7 µM | 21.4 µM | 2.19 µM | GI50 (HOP-92 [1]; read-out: GI50): 0.219 µM; GI50 (A549): 5.89 µM; GI50 (RPMI-8226): 64.6 µM; GI50 (CCRF-CEM): 3.55 µM; growth inhibition (GI) (SNB-75 [3]): Active; growth inhibition (GI) (HOP-92 [4]): Active; pIC50 (Cytochrome P450 1A1): 5.60; GI50 (Hs-578T; read-out: GI50): 1.71 µM; GI50 (SNB-75 [2]; read-out: GI50): 0.416 µM; GI50 (NCI-H460): 63.1 µM; GI50 (NCI-H522): 60.3 µM; GI50 (NCI-H226): 38 µM; GI50 (NCI-H23): 26.9 µM; GI50 (NCI-H322M): > 100 µM
3 | COc1ccc(Nc2nc3sc4cc(Cl)ccc4n3c(=N)c2C#N)cc1 | 3.39 µM | 20.9 µM | 19.1 µM | 1.91 µM | 13.2 µM | 34.7 µM | 57.5 µM | 29.5 µM | 4.07 µM | 0.407 µM | 3.09 µM | 2.82 µM | 2.04 µM | 3.39 µM | 4.07 µM | 2.51 µM | 30.9 µM | 40.7 µM | 4.37 µM | 1.7 µM | GI50 (A549): 50.1 µM; GI50 (RPMI-8226): 17 µM; GI50 (CCRF-CEM): 17.4 µM; GI50 (MDA-MB-468): 3.55 µM; GI50 (Hs-578T; read-out: GI50): 0.406 µM; GI50 (NCI-H460): 26.3 µM; GI50 (NCI-H522): 33.1 µM; GI50 (NCI-H226): 1.91 µM; GI50 (NCI-H23): 1.55 µM; GI50 (NCI-H322M): 3.31 µM
